Source: patent US4622337A, “2,2-dimethyl-3-(2-halovinyl)cyclopropane carboxlic acid ester pesticides” (priority 1972, dated 1986)

Legend:
[1] = tested on: mustard beetles (Phaedon cochleariae Fab); experiment: Relative toxicity to mustard beetles, topical micro drop; format: in vivo; settings: 5-benzyl-3-furylmethyl (1R)-trans-chrysanthemate = 1000; inverse ratio of LD50; topical, 48 hours
Method: (§1) The toxicity of these new esters was tested by the procedure described in detail in our above mentioned application and the following results were obtained:
(§2) The insecticidal acitivity of the esters of the invention was assessed against houseflies and mustard beetles using the following techniques:
Acetone solutions of the test compound were applied ventrally to adult mustard beetles using a micro drop applicator. The treated insects were maintained for 48 hours after which time kill is assessed. Two replicates of 40 to 50 mustard beetles were used at each dose level and 3 to 4 dose levels were used for each compound. Again, LD50 values were calculated and relative toxicities were calculated for the inverse ratios of LD50 (see Elliott et al, J. Sci. Food Agric. 20, 561, (1969)).
(§3) Relative toxicities were calculated by comparison with 5-benzyl-3-furylmethyl(1R)-trans-chrysanthemate which is one of the most toxic chrysanthemate esters known to houseflies and mustard beetles, its toxicity being about 24 times that of allethrin to houseflies and 65 times that of allethrin to mustard beetles.

[2] = tested on: houseflies (Musca domestica); experiment: Relative toxicity to houseflies, topical drop on thorax; format: in vivo; settings: 5-benzyl-3-furylmethyl (1R)-trans-chrysanthemate = 1000; inverse ratio of LD50; topical, female flies
Method: as §1, §2
Female flies were treated on the thorax with a one microliter drop of insecticide dissolved in acetone. Two replicates of 15 flies were used at each dose rate and 6 dose rates were used per compound under test. After treatment, the flies were maintained at a temperature of 20° C.±1° and kill was assessed 24 and 48 hours after treatment. LD50 values were calculated in micrograms of insecticide per fly and relative toxicities were calculated from the inverse ratios of the LD50 values. (see Sawicki et al, Bulletin of the World Health Organization, 35,893, (1966) and Sawicki et al, Entomologia and Exp. Appl. 10, 253, (1967)).
as §3

| Compound | Relative Toxicity, Mustard Beetles [1] | Relative Toxicity, Houseflies [2] |
| --- | --- | --- |
| CCOC(=O)C=C[C@@H]1[C@@H](C(=O)OCc2coc(Cc3ccccc3)c2)C1(C)C [Compound P19B] | 320 | 67 |
| CC1(C)[C@H](C=C(Cl)Cl)[C@H]1C(=O)OCc1cccc(C(=O)c2ccccc2)c1 (racemic) [Compound P39B, 3-benzoylbenzyl(1RS)-trans-2,2-dimethyl-3-(2,2-dichlorovinyl)-cyclopropane carboxylate] | 590 | 10 |
| CCC(=C[C@@H]1[C@@H](C(=O)OCc2coc(Cc3ccccc3)c2)C1(C)C)C(=O)OC [Compound P19F] | 360 | 130 |
| CC1(C)[C@H](C=C(Cl)Cl)[C@H]1C(=O)OC(C#N)c1cccc(Oc2ccccc2)c1 (stereo partly drawn) [Compound P29E, (αRS)-cyano-3-phenoxybenzyl(1R)trans-2,2-dimethyl-3-(2,2-dichlorovinyl)-cyclopropane carboxylate] | 3100 | 3900 |
| CC1(C)C(C=C(Cl)Cl)C1C(=O)OCc1cccc(Cc2ccccc2)c1 (stereo not shown) [Compound P21K] | 350 | 340 |
| CCOC(=O)C(Cl)=C[C@@H]1[C@@H](C(=O)OCc2coc(Cc3ccccc3)c2)C1(C)C [Compound P24B] | 310 | 150 |
| C#CC(OC(=O)[C@@H]1[C@H](C=C(Br)Br)C1(C)C)c1cccc(Oc2ccccc2)c1 (stereo partly shown) [ME7] | 5000 | 1100 |
| CC1(C)[C@H](C=C(Br)Br)[C@H]1C(=O)OC(C#N)c1cccc(Oc2ccccc2)c1 (stereo partly drawn) [Compound P29D, (αRS)-cyano-3-phenoxybenzyl(1R)trans-2,2-dimethyl-3-(2,2-dibromovinyl)-cyclopropane carboxylate] | 5200 | 4100 |
| CC1(C)[C@H](C=C(Br)Br)[C@H]1C(=O)OCc1cccc(Oc2ccccc2)c1 [Compound P29C, 3-phenoxybenzyl(1R)trans-2,2-dimethyl-3-(2,2-dibromovinyl)-cyclopropane carboxylate] | 4000 | 1100 |
| CCC=C(C)C1C(C(=O)OCc2coc(Cc3ccccc3)c2)C1(C)C (stereo not shown) [Compound H] | 10 | < 7 |
| CC1(C)[C@H](C(=O)OCc2cccc(Oc3ccccc3)c2)[C@@H]1C=C(F)F [Compound P31E] | 850 | 1800 |
| CC1(C)C(C=C(Cl)Cl)C1C(=O)OCC#CCOc1ccccc1 (racemic) [Compound ME5, 4-Phenoxybut-2-ynyl(1RS)-cis,trans-3-(2,2-dichlorovinyl)-2,2-dimethylcyclopropane carboxylate] | 40 | 300 |
| CC1(C)[C@H](C=C(F)F)[C@H]1C(=O)OCc1cccc(C(=O)c2ccccc2)c1 [Compound P39C, 3-benzoylbenzyl(1R)trans-2,2-dimethyl-3-(2,2-difluorovinyl)-cyclopropane carboxylate] | 50 | 6 |
| C=CCC1=C(C)C(OC(=O)[C@@H]2[C@@H](C=C(F)F)C2(C)C)CC1=O (stereo partly shown) [ME9] | 50 | 50 |
| CCCOC(=O)C(Cl)=C[C@@H]1[C@@H](C(=O)OCc2coc(Cc3ccccc3)c2)C1(C)C [Compound P24C] | 120 | 53 |
| CC1(C)C(C=C(Cl)Cl)C1C(=O)OC(C#N)c1coc(Cc2ccccc2)c1 (racemic) [Compound P21N, (αRS)-Cyano-5-benzyl-3-furylmethyl-(1RS)-cis-trans-3-(2,2-dichlorovinyl)-2,2-dimethyl cyclopropane carboxylate] | 2000 | 100 |
| CC1(C)C(C=C(Cl)Cl)C1C(=O)OC(C#N)c1cccc(Oc2ccccc2)c1 (racemic) [Compound P29F, (αRS)-cyano-3-phenoxybenzyl(1RS)-cis-trans-2,2-dimethyl-3-(2,2-dichlorovinyl)-cyclopropane carboxylate] |  | 1700 |
| CCCC=C[C@@H]1[C@@H](C(=O)OCc2coc(Cc3ccccc3)c2)C1(C)C [B] | 890 | 630 |
| CC1(C)[C@H](C=C(Cl)Cl)[C@H]1C(=O)OC(C#N)c1cccc(C(=O)c2ccccc2)c1 (relative stereo) [Compound P39F, (αRS)-cyano-3-benzoylbenzyl(1RS)-trans-2,2-dimethyl-3-(2,2-dichlorovinyl)-cyclopropane carboxylate] | 600 | 80 |

| Compound | Relative Toxicity, Mustard Beetles [1] | Relative Toxicity, Houseflies [2] |
| --- | --- | --- |
| C=C/C=C\CC1=C(C)C(OC(=O)[C@@H]2[C@@H](/C=C\CC)C2(C)C)CC1=O (single isomer, unassigned) [Compound R] | 300 | 30 |
| C=CCC1=C(C)C(OC(=O)[C@@H]2[C@H](C=C(F)F)C2(C)C)CC1=O (stereo partly shown) [ME10] | 30 | 40 |
| CC1(C)[C@H](C(=O)OCC#CCOc2ccccc2)[C@@H]1C=C(F)F [Compound ME3, 4-Phenoxybut-2-ynyl(1R)cis-3-(2,2-difluorovinyl)-2,2-dimethylcyclopropane carboxylate] | 30 | 150 |
| COC(=O)C=C[C@@H]1[C@@H](C(=O)OCc2coc(Cc3ccccc3)c2)C1(C)C [Compound P19A] | 100 | 91 |
| CCOC(=O)C(C)=C[C@@H]1[C@@H](C(=O)OCc2coc(Cc3ccccc3)c2)C1(C)C [Compound P19D] | 440 | 290 |
| CC1(C)[C@H](C(=O)OC(C#N)c2cccc(Oc3ccccc3)c2)[C@@H]1C=C(Cl)Cl (relative stereo) [Compound P29G, (αRS)-cyano-3-phenoxybenzyl(1RS)-cis-2,2-dimethyl-3-(2,2-dichlorovinyl)-cyclopropane carboxylate] | 2400 | 3800 |
| CCCOC(=O)C(C)=C[C@@H]1[C@@H](C(=O)OCc2coc(Cc3ccccc3)c2)C1(C)C [Compound P19E] | 500 | 290 |
| CC1(C)[C@H](C(=O)OCc2cccc(Cc3ccccc3)c2)[C@@H]1C=C(Cl)Cl (relative stereo) [Compound P21J] | 350 | 360 |
| CC1(C)[C@H](C(=O)OCc2cccc(Oc3ccccc3)c2)[C@@H]1C=C(Br)Br [Compound P29A, 3-phenoxybenzyl(1R)cis-2,2-dimethyl-3-(2,2-dibromovinyl)cyclopropane carboxylate] | 1600 | 2200 |
| CCOC(=O)C(=C[C@@H]1[C@@H](C(=O)OCc2coc(Cc3ccccc3)c2)C1(C)C)CC [Compound P19G] | 500 | 300 |
| CC1(C)[C@H](C=C(Br)Br)[C@H]1C(=O)OCc1coc(Cc2ccccc2)c1 [Compound P21B] | 1900 | 1100 |
| C=CCC1=C(C)C(OC(=O)[C@@H]2[C@@H](/C=C\CC)C2(C)C)CC1=O (stereo partly shown) [Q] | 69 | 60 |
| CC1(C)[C@H](C=CCl)[C@H]1C(=O)OCc1coc(Cc2ccccc2)c1 [K] | 1600 | 1300 |
| CC1(C)C(C=C(Cl)Cl)C1C(=O)OC1C=C(Cc2ccccc2)C(=O)C1 (racemic) [ME8, (±)-2-benzylcyclopentenon-4-yl(1RS)-cis,trans-3,(2,2-dichlorovinyl)-2,2-dimethylcyclopropane carboxylate] | 265 | 50 |
| CC1(C)[C@H](C(=O)OCc2cccc(C(=O)c3ccccc3)c2)[C@@H]1C=C(Br)Br [Compound P39A, 3-benzoylbenzyl(1R)cis-2,2-dimethyl-3-(2,2-dibromovinyl)-cyclopropane carboxylate] | 830 | 50 |
| CC1(C)[C@H](C=C(F)F)[C@H]1C(=O)OCC#CCOc1ccccc1 [Compound ME4, 4-Phenoxybut-2-ynyl(1R)-trans-3-(2,2-difluorovinyl)-2,2-dimethylcyclopropane carboxylate] | 70 | 60 |
| COC(=O)C(Cl)=C[C@@H]1[C@@H](C(=O)OCc2coc(Cc3ccccc3)c2)C1(C)C [Compound P24A, 5-benzyl-3-furylmethyl ester of 2,2-dimethyl-3-(2-chloro-2-carbomethoxyvinyl)cyclopropane carboxylic acid] | 310 | 82 |
| C=C(C)C1C(C(=O)OCc2coc(Cc3ccccc3)c2)C1(C)C (stereo not shown) [F] |  | 21 |
| CC=C(C)C1C(C(=O)OCc2coc(Cc3ccccc3)c2)C1(C)C (stereo not shown) [G] |  | 18 |
